Earlier results in PubChem BioAssay AID1259409 (Chemical Carcinogenesis Research Information System (CCRIS), 2018).

Tested on: rodent chemically induced tumor inhibition, incidence and multiplicity
Assay: CCRIS tumor inhibitor studies
Conditions: Dose [Inhibitor]: 0, Route [Inhibitor]: ORAL

Oc1cccc(O)c1
tumour outcome (control, treated, inhibition, significance) (Carcinogen: N-BIS(2-HYDROXYPROPYL)NITROSAMINE, 53609-64-6, 0.8% IN DIET FOR 30 WK BEGINNING POST CARCINOGEN TREATMENT (STUDY DURATION: 32 WK), Species: RAT, Strain/Sex: F344/MALE, Target Tissue: Type of Lesion: LUNG: ADENOMA, Dose [Carcinogen]: 0.1% IN DRINKING WATER FOR 2 WK, Promoter: NONE USED): 100%, 90%, 10%, not calculated
tumour outcome (control, treated, inhibition, significance) (Carcinogen: N-BIS(2-HYDROXYPROPYL)NITROSAMINE, 53609-64-6, 0.8% IN DIET FOR 30 WK BEGINNING POST CARCINOGEN TREATMENT (STUDY DURATION: 32 WK), Species: RAT, Strain/Sex: F344/MALE, Target Tissue: Type of Lesion: THYROID: ADENOMA, Dose [Carcinogen]: 0.1% IN DRINKING WATER FOR 2 WK, Promoter: NONE USED): 20%, 30%, -50%, not calculated
tumour outcome (control, treated, inhibition, significance) (Carcinogen: N-BIS(2-HYDROXYPROPYL)NITROSAMINE, 53609-64-6, 0.8% IN DIET FOR 30 WK BEGINNING POST CARCINOGEN TREATMENT (STUDY DURATION: 32 WK), Species: RAT, Strain/Sex: F344/MALE, Target Tissue: Type of Lesion: THYROID: CARCINOMA, Dose [Carcinogen]: 0.1% IN DRINKING WATER FOR 2 WK, Promoter: NONE USED): 20%, 25%, -25%, not calculated
tumour outcome (control, treated, inhibition, significance) (Carcinogen: N-ETHYL-N-HYDROXYETHYLNITROSAMINE, 13147-25-6, 0.8% IN DIET FOR 36 WK BEGINNING 1 WK POST CARCINOGEN TREATMENT (STUDY DURATION: 40 WK), Species: RAT, Strain/Sex: WISTAR/MALE, Target Tissue: Type of Lesion: KIDNEY: MICROADENOMA, Dose [Carcinogen]: 0.1% IN DRINKING WATER FOR 3 WK, Promoter: NONE USED): 11/17 (65%), 12/16 (75%), -15%, not significant
tumour outcome (control, treated, inhibition, significance) (Carcinogen: N-ETHYL-N-HYDROXYETHYLNITROSAMINE, 13147-25-6, 0.8% IN DIET FOR 36 WK BEGINNING 1 WK POST CARCINOGEN TREATMENT (STUDY DURATION: 40 WK), Species: RAT, Strain/Sex: WISTAR/MALE, Target Tissue: Type of Lesion: KIDNEY: RENAL CELL TUMOR, Dose [Carcinogen]: 0.1% IN DRINKING WATER FOR 3 WK, Promoter: NONE USED): 14/17 (82%), 13/16 (81%), 1%, not significant
tumour outcome (control, treated, inhibition, significance) (Carcinogen: N-ETHYL-N-HYDROXYETHYLNITROSAMINE, 13147-25-6, 0.8% IN DIET FOR 36 WK BEGINNING 1 WK POST CARCINOGEN TREATMENT (STUDY DURATION: 40 WK), Species: RAT, Strain/Sex: WISTAR/MALE, Target Tissue: Type of Lesion: LIVER: HEPATOCELLULAR ADENOMA, Dose [Carcinogen]: 0.1% IN DRINKING WATER FOR 3 WK, Promoter: NONE USED): 10/17 (59%), 7/16 (44%), 25%, not significant
tumour outcome (control, treated, inhibition, significance) (Carcinogen: N-ETHYL-N-HYDROXYETHYLNITROSAMINE, 13147-25-6, 0.8% IN DIET FOR 36 WK BEGINNING 1 WK POST CARCINOGEN TREATMENT (STUDY DURATION: 40 WK), Species: RAT, Strain/Sex: WISTAR/MALE, Target Tissue: Type of Lesion: LIVER: HEPATOCELLULAR CARCINOMA, Dose [Carcinogen]: 0.1% IN DRINKING WATER FOR 3 WK, Promoter: NONE USED): 7/17 (41%), 3/16 (19%), 54%, not significant
tumour outcome (control, treated, inhibition, significance) (Carcinogen: N-NITROSOBIS(2-OXOPROPYL)AMINE, 60599-38-4, 1.5% IN DIET FOR 16 WK BEGINNING 2 WK POST CARCINOGEN TREATMENT (STUDY DURATION: 20 WK), Species: HAMSTER, Strain/Sex: SYRIAN/FEMALE, Target Tissue: Type of Lesion: GALL BLADDER: ADENOMA, Dose [Carcinogen]: 70 MG/KG IN SALINE FOLLOWED 2 WK LATER BY SECOND TREATMENT): 9/18 (50%), 10/16 (62%), -24%, not calculated
tumour outcome (control, treated, inhibition, significance) (Carcinogen: N-NITROSOBIS(2-OXOPROPYL)AMINE, 60599-38-4, 1.5% IN DIET FOR 16 WK BEGINNING 2 WK POST CARCINOGEN TREATMENT (STUDY DURATION: 20 WK), Species: HAMSTER, Strain/Sex: SYRIAN/FEMALE, Target Tissue: Type of Lesion: GALL BLADDER: CARCINOMA, Dose [Carcinogen]: 70 MG/KG IN SALINE FOLLOWED 2 WK LATER BY SECOND TREATMENT): 1/18 (6%), 1/16 (6%), 0%, not significant
tumour outcome (control, treated, inhibition, significance) (Carcinogen: N-NITROSOBIS(2-OXOPROPYL)AMINE, 60599-38-4, 1.5% IN DIET FOR 16 WK BEGINNING 2 WK POST CARCINOGEN TREATMENT (STUDY DURATION: 20 WK), Species: HAMSTER, Strain/Sex: SYRIAN/FEMALE, Target Tissue: Type of Lesion: LIVER: CHOLANGIOCARCINOMA, Dose [Carcinogen]: 70 MG/KG IN SALINE FOLLOWED 2 WK LATER BY SECOND TREATMENT): 16/18 (89%), 12/16 (75%), 16%, not calculated
tumour outcome (control, treated, inhibition, significance) (Carcinogen: N-NITROSOBIS(2-OXOPROPYL)AMINE, 60599-38-4, 1.5% IN DIET FOR 16 WK BEGINNING 2 WK POST CARCINOGEN TREATMENT (STUDY DURATION: 20 WK), Species: HAMSTER, Strain/Sex: SYRIAN/FEMALE, Target Tissue: Type of Lesion: LIVER: NEOPLASTIC NODULE, Dose [Carcinogen]: 70 MG/KG IN SALINE FOLLOWED 2 WK LATER BY SECOND TREATMENT): 18/18 (100%), 16/16 (100%), 0%, not significant
tumour outcome (control, treated, inhibition, significance) (Carcinogen: N-NITROSOBIS(2-OXOPROPYL)AMINE, 60599-38-4, 1.5% IN DIET FOR 16 WK BEGINNING 2 WK POST CARCINOGEN TREATMENT (STUDY DURATION: 20 WK), Species: HAMSTER, Strain/Sex: SYRIAN/FEMALE, Target Tissue: Type of Lesion: PANCREAS: ADENOCARCINOMA, Dose [Carcinogen]: 70 MG/KG IN SALINE FOLLOWED 2 WK LATER BY SECOND TREATMENT): 14/18 (78%), 10/16 (63%), 19%, not calculated
